Test results reported in US6706663B2, “Herbicidal 3-heterocyclic substituted benzisothiazole and benzisoxazole compounds” (Wyeth, priority 2000, dated 2004).

Assays:
[1] = test system: SAGPY (Sagittaria pygmaea); assay: Flooded paddy, preemergence weed control; assay type: in vivo, L.; conditions: rated 3-4 weeks after treatment, 0-9 rating scale
How it was run: (§1)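 Under paddy conditions, seeds or vegetative propagules go into the top 0.5 cm of silt loam; the soil is then flooded to 1.5–3 cm and kept so. Treated pots stay in a greenhouse; response is rated 0-9 visually versus control.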

[2] = test system: IPOHE (Ipomoea hederacea); assay: Preemergence herbicidal evaluation; assay type: in vivo, (L.) Jacq.; conditions: preemergence, rated 4-5 weeks after treatment
[3] = test system: AMBEL (Ambrosia artemisifolia); assay: Postemergence herbicidal evaluation; assay type: in vivo, L.
How it was run: (§2)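 Seedlings grown for about two weeks were sprayed postemergence and then kept under standard greenhouse care. Injury was rated visually 4–5 weeks after treatment on a 0–9 scale against untreated controls, and ratings from repeat tests were averaged.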

[4] = test system: CASOB (Cassia obtusifolia); assay: Postemergence herbicidal evaluation; assay type: in vivo, L.
How it was run: as §2

[5] = test system: CHEAL (Chenopodium album); assay: Postemergence herbicidal evaluation; assay type: in vivo, L.
How it was run: as §2

[6] = test system: ECHCG (Echinochloa crus-galli); assay: Postemergence herbicidal evaluation; assay type: in vivo, (L.) Beau
How it was run: as §2

ORYSAT (Rice, Tebonnet) [7] = assay: Postemergence herbicidal evaluation; assay type: in vivo, Oryza sativa, (L.) Tebonnet
How it was run: as §2

[8] = test system: TRZAWR (Wheat, Winter, cv Riband); assay: Preemergence herbicidal evaluation; assay type: in vivo, Triticum aestivum; conditions: preemergence, rated 4-5 weeks after treatment
How it was run: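 Seeds mixed with potting soil were planted atop about one inch of soil, then sprayed with test compound in aqueous acetone. Cups were kept in the greenhouse and rated visually 4–5 weeks after treatment on a 0–9 scale against untreated control.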

[9] = test system: ECHORC (Echinochloa oryzoides); assay: Flooded paddy, preemergence weed control; assay type: in vivo, Echinochloa oryzoides (Ard.) Fritsch.; conditions: rated 3-4 weeks after treatment, 0-9 rating scale
How it was run: as §1

ORYSAT (Rice, Tebonnet) [10] = assay: Preemergence herbicidal evaluation; assay type: in vivo, Oryza sativa, (L.) Tebonnet; conditions: preemergence, rated 4-5 weeks after treatment
ZEAMX (Corn, Field) = assay: Postemergence herbicidal evaluation; assay type: in vivo, Zea mays, L.
How it was run: as §2

[11] = test system: GLXMAW (Soybean, Williams); assay: Preemergence herbicidal evaluation; assay type: in vivo, Glycine max, (L.) Merr. cv Williams; conditions: preemergence, rated 4-5 weeks after treatment
CYPIR (Cyperus iria) = assay: Flooded paddy, preemergence weed control; assay type: in vivo; conditions: rated 3-4 weeks after treatment, 0-9 rating scale
How it was run: as §1

SMILES	herbicidal rating, SAGPY ([1]; rate 0.0320 kg/ha)	herbicidal rating, SAGPY ([1]; rate 0.1250 kg/ha)	IPOHE preemergence herbicidal rating ([2]; Rate 0.0620 kg/ha)	IPOHE preemergence herbicidal rating ([2]; Rate 0.1250 kg/ha)	IPOHE preemergence herbicidal rating ([2]; Rate 0.2500 kg/ha)	Postemergence herbicidal rating, AMBEL ([3]; rate 0.0320 kg/ha)	Postemergence herbicidal rating, AMBEL ([3]; rate 0.0620 kg/ha)	Postemergence herbicidal rating, AMBEL ([3]; rate 0.1250 kg/ha)	Postemergence herbicidal rating, CASOB ([4]; rate 0.0320 kg/ha)	Postemergence herbicidal rating, CASOB ([4]; rate 0.0620 kg/ha)	Postemergence herbicidal rating, CASOB ([4]; rate 0.1250 kg/ha)	Postemergence herbicidal rating, CHEAL ([5]; rate 0.0320 kg/ha)	Postemergence herbicidal rating, CHEAL ([5]; rate 0.0620 kg/ha)	Postemergence herbicidal rating, CHEAL ([5]; rate 0.1250 kg/ha)	Postemergence herbicidal rating, ECHCG ([6]; rate 0.0320 kg/ha)	Postemergence herbicidal rating, ECHCG ([6]; rate 0.0620 kg/ha)	Postemergence herbicidal rating, ECHCG ([6]; rate 0.1250 kg/ha)	Postemergence herbicidal rating, ORYSAT (ORYSAT (Rice, Tebonnet) [7]; rate 0.0320 kg/ha)	Postemergence herbicidal rating, ORYSAT (ORYSAT (Rice, Tebonnet) [7]; rate 0.0620 kg/ha)	Postemergence herbicidal rating, ORYSAT (ORYSAT (Rice, Tebonnet) [7]; rate 0.1250 kg/ha)	further results
Cc1csc(-c2nsc3ccc(-n4c(=O)cc(C(F)(F)F)n(C)c4=O)cc23)n1 [Compound 7, 1-methyl-3-[3-(4-methyl-2-thiazolyl)-1,2-benzisothiazol-5-yl]-6-(trifluoromethyl)uracil]	0.0	1.0	0.0	0.0	9.0	2.0	4.0	9.0	0.0	0.0	3.0	4.0	4.0	9.0	0.0	0.0	0.0	4.5	5.0	7.0	herbicidal rating, SAGPY ([1]; rate 0.0080 kg/ha): 0.0; TRZAWR preemergence herbicidal rating ([8]; Rate 0.0620 kg/ha): 0.0; TRZAWR preemergence herbicidal rating ([8]; Rate 0.1250 kg/ha): 2.0; TRZAWR preemergence herbicidal rating ([8]; Rate 0.2500 kg/ha): 2.0; herbicidal rating, ECHORC ([9]; rate 0.0080 kg/ha): 0.0; herbicidal rating, ECHORC ([9]; rate 0.0320 kg/ha): 5.0; herbicidal rating, ECHORC ([9]; rate 0.1250 kg/ha): 9.0; ORYSAT preemergence herbicidal rating (ORYSAT (Rice, Tebonnet) [10]; Rate 0.0620 kg/ha): 0.0; ORYSAT preemergence herbicidal rating (ORYSAT (Rice, Tebonnet) [10]; Rate 0.1250 kg/ha): 0.0; ORYSAT preemergence herbicidal rating (ORYSAT (Rice, Tebonnet) [10]; Rate 0.2500 kg/ha): 0.0; Postemergence herbicidal rating, ZEAMX (ZEAMX (Corn, Field); rate 0.0320 kg/ha): 5.0; Postemergence herbicidal rating, ZEAMX (ZEAMX (Corn, Field); rate 0.0620 kg/ha): 6.0; Postemergence herbicidal rating, ZEAMX (ZEAMX (Corn, Field); rate 0.1250 kg/ha): 7.5; GLXMAW preemergence herbicidal rating ([11]; Rate 0.0620 kg/ha): 0.0; GLXMAW preemergence herbicidal rating ([11]; Rate 0.1250 kg/ha): 0.0; GLXMAW preemergence herbicidal rating ([11]; Rate 0.2500 kg/ha): 2.0; herbicidal rating, CYPIR (CYPIR (Cyperus iria); rate 0.0080 kg/ha): 7.0; herbicidal rating, CYPIR (CYPIR (Cyperus iria); rate 0.0320 kg/ha): 8.5; herbicidal rating, CYPIR (CYPIR (Cyperus iria); rate 0.1250 kg/ha): 9.0
Cn1c(C(F)(F)F)cc(=O)n(-c2ccc3snc(-c4ccccn4)c3c2)c1=O [Compound 9, 1-methyl-3-[3-(2-pyridyl)-1,2-benzisothiazol-5-yl]-6-(trifluoromethyl)uracil]	3.0	9.0	6.3	8.3	9.0	9.0	9.0	9.0	6.5	8.0	9.0	9.0	9.0	9.0	1.0	2.0	8.0	3.8	4.3	3.0	herbicidal rating, SAGPY ([1]; rate 0.0080 kg/ha): 0.0; TRZAWR preemergence herbicidal rating ([8]; Rate 0.0620 kg/ha): 5.5; TRZAWR preemergence herbicidal rating ([8]; Rate 0.1250 kg/ha): 7.5; TRZAWR preemergence herbicidal rating ([8]; Rate 0.2500 kg/ha): 8.5; herbicidal rating, ECHORC ([9]; rate 0.0080 kg/ha): 4.0; herbicidal rating, ECHORC ([9]; rate 0.0320 kg/ha): 7.0; herbicidal rating, ECHORC ([9]; rate 0.1250 kg/ha): 9.0; ORYSAT preemergence herbicidal rating (ORYSAT (Rice, Tebonnet) [10]; Rate 0.0620 kg/ha): 4.3; ORYSAT preemergence herbicidal rating (ORYSAT (Rice, Tebonnet) [10]; Rate 0.1250 kg/ha): 6.7; ORYSAT preemergence herbicidal rating (ORYSAT (Rice, Tebonnet) [10]; Rate 0.2500 kg/ha): 8.0; Postemergence herbicidal rating, ZEAMX (ZEAMX (Corn, Field); rate 0.0320 kg/ha): 5.3; Postemergence herbicidal rating, ZEAMX (ZEAMX (Corn, Field); rate 0.0620 kg/ha): 5.8; Postemergence herbicidal rating, ZEAMX (ZEAMX (Corn, Field); rate 0.1250 kg/ha): 5.5; GLXMAW preemergence herbicidal rating ([11]; Rate 0.0620 kg/ha): 4.0; GLXMAW preemergence herbicidal rating ([11]; Rate 0.1250 kg/ha): 8.3; GLXMAW preemergence herbicidal rating ([11]; Rate 0.2500 kg/ha): 8.7; herbicidal rating, CYPIR (CYPIR (Cyperus iria); rate 0.0080 kg/ha): 8.0; herbicidal rating, CYPIR (CYPIR (Cyperus iria); rate 0.0320 kg/ha): 7.0; herbicidal rating, CYPIR (CYPIR (Cyperus iria); rate 0.1250 kg/ha): 9.0
COc1ccsc1-c1nsc2ccc(-n3c(=O)cc(C(F)(F)F)n(C)c3=O)cc12 [Compound 10, 3-[3-(3-methoxy-2-thienyl)-1,2-benzisothiazol-5-yl]-1-methyl-6-(trifluoromethyl)uracil]	0.0	0.0	0.5	0.5	2.0	2.0	3.0	9.0	0.0	0.0	1.0	1.0	1.0	4.0	0.0	0.0	0.0	1.3	1.8	3.0	TRZAWR preemergence herbicidal rating ([8]; Rate 0.0620 kg/ha): 1.5; TRZAWR preemergence herbicidal rating ([8]; Rate 0.1250 kg/ha): 4.5; TRZAWR preemergence herbicidal rating ([8]; Rate 0.2500 kg/ha): 7.0; herbicidal rating, ECHORC ([9]; rate 0.0320 kg/ha): 0.0; herbicidal rating, ECHORC ([9]; rate 0.1250 kg/ha): 5.0; ORYSAT preemergence herbicidal rating (ORYSAT (Rice, Tebonnet) [10]; Rate 0.0620 kg/ha): 1.0; ORYSAT preemergence herbicidal rating (ORYSAT (Rice, Tebonnet) [10]; Rate 0.1250 kg/ha): 3.0; ORYSAT preemergence herbicidal rating (ORYSAT (Rice, Tebonnet) [10]; Rate 0.2500 kg/ha): 7.0; Postemergence herbicidal rating, ZEAMX (ZEAMX (Corn, Field); rate 0.0320 kg/ha): 3.8; Postemergence herbicidal rating, ZEAMX (ZEAMX (Corn, Field); rate 0.0620 kg/ha): 5.0; Postemergence herbicidal rating, ZEAMX (ZEAMX (Corn, Field); rate 0.1250 kg/ha): 5.0; GLXMAW preemergence herbicidal rating ([11]; Rate 0.0620 kg/ha): 0.5; GLXMAW preemergence herbicidal rating ([11]; Rate 0.1250 kg/ha): 1.0; GLXMAW preemergence herbicidal rating ([11]; Rate 0.2500 kg/ha): 2.5; herbicidal rating, CYPIR (CYPIR (Cyperus iria); rate 0.0320 kg/ha): 4.0; herbicidal rating, CYPIR (CYPIR (Cyperus iria); rate 0.1250 kg/ha): 9.0
